Measurements taken from paper PMC10175918 (Communications Biology, 2023).
Read-outs that look alike come from different tables or passages of the source.

Key:
Assay in all cases: TGFα-shedding assay-based GPCR screening with chimeric Gα subunit proteins
Type in all cases: cell-based
[1] = target: T1, 348 GPCRs (Homo sapiens, UniProt P32247); settings: BB3 (Bombesin receptor, subtype 3); 10µM, Favipiravir 100μM; read-out: % GPCR activation compared to TPA
T1 construct: expressed in transfected cells; host or cells: HEK293A
T1 sequence (P32247 1-399): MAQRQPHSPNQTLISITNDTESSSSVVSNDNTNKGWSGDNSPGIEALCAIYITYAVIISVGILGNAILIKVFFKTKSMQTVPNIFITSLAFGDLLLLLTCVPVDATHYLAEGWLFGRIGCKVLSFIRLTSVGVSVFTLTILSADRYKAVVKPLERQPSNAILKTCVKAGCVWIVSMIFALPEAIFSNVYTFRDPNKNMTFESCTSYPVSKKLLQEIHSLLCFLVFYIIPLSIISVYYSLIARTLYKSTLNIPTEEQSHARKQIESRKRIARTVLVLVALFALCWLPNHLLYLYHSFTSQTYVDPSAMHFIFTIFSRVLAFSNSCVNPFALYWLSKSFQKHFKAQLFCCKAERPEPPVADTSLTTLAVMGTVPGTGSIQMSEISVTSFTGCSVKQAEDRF

[2] = target: 348 GPCRs (Homo sapiens, UniProt P30872); settings: SSTR1 (somatostatin receptor 1); 10µM, Favipiravir 100μM; read-out: % GPCR activation compared to TPA
[3] = target: 348 GPCRs (Homo sapiens, UniProt P21918); settings: D5 (dopamine receptor D5); 10µM, Favipiravir 100μM; read-out: % GPCR activation compared to TPA
[4] = target: T2, 348 GPCRs (Homo sapiens, UniProt Q9NYW1); settings: TAS2R9 (taste receptor, type 2, member 9); 10µM, Favipiravir 100μM; read-out: % GPCR activation compared to TPA
T2 construct: expressed in transfected cells; host or cells: HEK293A
T2 sequence (Q9NYW1 1-312): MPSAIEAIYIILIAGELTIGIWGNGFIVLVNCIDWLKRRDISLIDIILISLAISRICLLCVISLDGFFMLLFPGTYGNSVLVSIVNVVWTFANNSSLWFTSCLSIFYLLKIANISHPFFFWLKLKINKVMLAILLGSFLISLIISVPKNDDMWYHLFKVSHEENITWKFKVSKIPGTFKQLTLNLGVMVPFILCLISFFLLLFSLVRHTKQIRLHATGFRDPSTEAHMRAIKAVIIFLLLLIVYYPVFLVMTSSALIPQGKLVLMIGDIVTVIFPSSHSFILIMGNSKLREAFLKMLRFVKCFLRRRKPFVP

[5] = target: T3, 348 GPCRs (Homo sapiens, UniProt P41594); settings: GRM5 (glutamate receptor, metabotropic 5); 10µM, Favipiravir 100μM; read-out: % GPCR activation compared to TPA
T3 construct: expressed in transfected cells; host or cells: HEK293A

[6] = target: T4, 348 GPCRs (Homo sapiens, UniProt Q96P69); settings: GPR78 (G Protein-Coupled Receptor 78); 10µM, Favipiravir 100μM; read-out: % GPCR activation compared to TPA
T4 construct: expressed in transfected cells; host or cells: HEK293A

[7] = target: T5, 348 GPCRs (Homo sapiens, UniProt Q9Y2T5); settings: GPCR GPR52 (G protein-coupled receptor 52), read-out: % GPCR activation compared to TPA
T5 construct: expressed in transfected cells; host or cells: HEK293A

[8] = target: T6, 348 GPCRs (Homo sapiens, UniProt P41231); settings: GPCR P2Y2 (purinergic receptor P2Y, G-protein coupled, 2), read-out: % GPCR activation compared to TPA
T6 construct: expressed in transfected cells; host or cells: HEK293A

[9] = target: T7, 348 GPCRs (Homo sapiens, UniProt Q8IZF7); settings: GPCR GPR111 (G-protein-coupled receptor 111 (ADGRF2)), read-out: % GPCR activation compared to TPA
T7 construct: expressed in transfected cells; host or cells: HEK293A
T7 sequence (Q8IZF7 1-708): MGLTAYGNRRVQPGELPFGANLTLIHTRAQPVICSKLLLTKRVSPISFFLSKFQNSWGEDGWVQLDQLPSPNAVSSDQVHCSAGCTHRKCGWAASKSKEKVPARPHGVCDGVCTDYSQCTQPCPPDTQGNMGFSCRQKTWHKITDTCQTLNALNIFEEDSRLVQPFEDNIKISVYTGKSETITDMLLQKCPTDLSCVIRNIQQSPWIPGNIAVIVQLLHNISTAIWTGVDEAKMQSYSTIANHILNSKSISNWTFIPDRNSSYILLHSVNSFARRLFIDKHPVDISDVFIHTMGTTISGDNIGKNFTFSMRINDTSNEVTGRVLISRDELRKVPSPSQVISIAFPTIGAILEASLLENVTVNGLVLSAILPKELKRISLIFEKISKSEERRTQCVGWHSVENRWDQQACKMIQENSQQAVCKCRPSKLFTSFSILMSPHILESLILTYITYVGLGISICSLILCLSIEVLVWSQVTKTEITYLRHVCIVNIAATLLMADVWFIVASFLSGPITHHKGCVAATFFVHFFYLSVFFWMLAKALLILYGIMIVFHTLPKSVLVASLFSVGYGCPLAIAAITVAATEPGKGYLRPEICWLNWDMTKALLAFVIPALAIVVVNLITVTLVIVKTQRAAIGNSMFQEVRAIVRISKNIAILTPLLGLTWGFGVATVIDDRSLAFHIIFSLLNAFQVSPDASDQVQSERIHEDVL

[10] = target: T8, 348 GPCRs (Homo sapiens, UniProt Q8IZ08); settings: GPR135 (G Protein-Coupled Receptor 135); 10µM, Favipiravir 100μM; read-out: % GPCR activation compared to TPA
T8 construct: expressed in transfected cells; host or cells: HEK293A

[11] = target: 348 GPCRs (Homo sapiens, UniProt P35372); settings: 10µM, Favipiravir 100μM
[12] = target: 348 GPCRs (Homo sapiens, UniProt P14416); settings: D2 (dopamine receptor D2); 10µM, Favipiravir 100μM; read-out: % GPCR activation compared to TPA
[13] = target: T9, 348 GPCRs (Homo sapiens, UniProt P22888); settings: LHCGR (luteinizing hormone/choriogonadotropin receptor); 10µM, Favipiravir 100μM; read-out: % GPCR activation compared to TPA
T9 construct: expressed in transfected cells; host or cells: HEK293A

[14] = target: T10, 348 GPCRs (Homo sapiens, UniProt P13945); settings: ADRB3 (adrenoceptor beta 3); 10µM, Favipiravir 100μM; read-out: % GPCR activation compared to TPA
T10 construct: expressed in transfected cells; host or cells: HEK293A
T10 sequence (P13945 whole entry): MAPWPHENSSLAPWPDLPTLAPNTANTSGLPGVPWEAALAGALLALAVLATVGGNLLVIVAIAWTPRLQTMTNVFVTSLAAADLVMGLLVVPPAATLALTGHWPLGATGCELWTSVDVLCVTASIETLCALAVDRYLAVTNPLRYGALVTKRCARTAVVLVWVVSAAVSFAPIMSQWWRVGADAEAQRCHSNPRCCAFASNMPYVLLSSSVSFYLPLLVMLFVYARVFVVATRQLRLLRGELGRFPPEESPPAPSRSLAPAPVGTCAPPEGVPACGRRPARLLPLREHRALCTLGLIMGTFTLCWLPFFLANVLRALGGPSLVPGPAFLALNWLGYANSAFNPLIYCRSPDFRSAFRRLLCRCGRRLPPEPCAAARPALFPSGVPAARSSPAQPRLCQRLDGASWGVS

Chain of 348 GPCRs (Homo sapiens, UniProt P21918) (P21918 whole entry): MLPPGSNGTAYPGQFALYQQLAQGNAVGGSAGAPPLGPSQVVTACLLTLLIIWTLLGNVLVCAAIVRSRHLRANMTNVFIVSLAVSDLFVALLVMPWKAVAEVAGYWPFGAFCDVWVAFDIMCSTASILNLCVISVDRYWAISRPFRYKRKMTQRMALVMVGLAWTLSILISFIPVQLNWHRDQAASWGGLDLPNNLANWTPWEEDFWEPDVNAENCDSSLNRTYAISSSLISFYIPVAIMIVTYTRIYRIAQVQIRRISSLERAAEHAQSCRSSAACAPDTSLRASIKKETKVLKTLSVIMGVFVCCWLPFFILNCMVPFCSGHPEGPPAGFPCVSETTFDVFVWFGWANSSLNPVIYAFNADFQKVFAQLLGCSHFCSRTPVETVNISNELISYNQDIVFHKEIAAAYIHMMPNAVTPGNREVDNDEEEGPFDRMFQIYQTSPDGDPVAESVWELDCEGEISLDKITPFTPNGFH
Chain of 348 GPCRs (Homo sapiens, UniProt P35372) (P35372 whole entry): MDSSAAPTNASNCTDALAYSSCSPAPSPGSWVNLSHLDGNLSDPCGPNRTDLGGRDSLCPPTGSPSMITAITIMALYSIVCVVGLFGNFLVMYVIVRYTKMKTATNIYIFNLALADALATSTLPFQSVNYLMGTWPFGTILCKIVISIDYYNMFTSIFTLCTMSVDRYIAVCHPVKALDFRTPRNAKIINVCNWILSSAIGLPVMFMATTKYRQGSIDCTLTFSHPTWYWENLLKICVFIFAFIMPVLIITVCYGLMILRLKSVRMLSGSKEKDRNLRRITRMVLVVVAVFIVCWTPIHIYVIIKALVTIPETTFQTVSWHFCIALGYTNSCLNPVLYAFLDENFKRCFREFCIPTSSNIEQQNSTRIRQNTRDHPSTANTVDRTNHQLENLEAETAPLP
T8 sequence (Q8IZ08 whole entry): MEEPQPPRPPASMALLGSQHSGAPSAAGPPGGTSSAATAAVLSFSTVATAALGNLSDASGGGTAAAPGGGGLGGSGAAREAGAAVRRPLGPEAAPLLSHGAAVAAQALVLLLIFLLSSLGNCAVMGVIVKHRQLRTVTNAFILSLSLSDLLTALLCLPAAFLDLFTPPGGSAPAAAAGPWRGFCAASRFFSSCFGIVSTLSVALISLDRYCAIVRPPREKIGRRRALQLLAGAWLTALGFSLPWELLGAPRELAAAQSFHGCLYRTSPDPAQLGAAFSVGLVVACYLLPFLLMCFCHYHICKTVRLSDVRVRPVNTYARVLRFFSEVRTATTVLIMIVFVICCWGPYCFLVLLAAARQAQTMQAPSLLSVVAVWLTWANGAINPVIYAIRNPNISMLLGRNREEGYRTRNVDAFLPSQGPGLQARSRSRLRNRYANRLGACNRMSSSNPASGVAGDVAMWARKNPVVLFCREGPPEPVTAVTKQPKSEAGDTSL
T6 sequence (P41231 whole entry): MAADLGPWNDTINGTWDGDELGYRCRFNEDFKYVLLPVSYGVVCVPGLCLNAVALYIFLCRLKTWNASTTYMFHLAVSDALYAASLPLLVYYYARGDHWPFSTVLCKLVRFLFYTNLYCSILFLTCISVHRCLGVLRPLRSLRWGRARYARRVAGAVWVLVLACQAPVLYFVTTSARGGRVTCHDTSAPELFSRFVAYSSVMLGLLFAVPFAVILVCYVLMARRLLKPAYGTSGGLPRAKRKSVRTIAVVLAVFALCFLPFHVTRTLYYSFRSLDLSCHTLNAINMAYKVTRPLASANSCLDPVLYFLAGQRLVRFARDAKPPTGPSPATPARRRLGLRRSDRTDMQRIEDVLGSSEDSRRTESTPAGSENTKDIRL
Chain of 348 GPCRs (Homo sapiens, UniProt P30872) (P30872 whole entry): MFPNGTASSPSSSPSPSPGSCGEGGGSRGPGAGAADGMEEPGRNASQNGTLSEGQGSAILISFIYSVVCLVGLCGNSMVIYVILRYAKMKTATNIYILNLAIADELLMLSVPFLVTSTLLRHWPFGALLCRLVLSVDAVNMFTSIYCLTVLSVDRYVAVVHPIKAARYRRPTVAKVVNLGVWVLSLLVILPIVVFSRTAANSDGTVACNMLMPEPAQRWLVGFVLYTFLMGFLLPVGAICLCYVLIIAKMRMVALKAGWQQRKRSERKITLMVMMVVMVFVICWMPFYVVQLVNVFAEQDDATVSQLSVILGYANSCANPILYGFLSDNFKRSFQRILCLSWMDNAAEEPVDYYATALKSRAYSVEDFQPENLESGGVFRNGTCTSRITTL
Chain of 348 GPCRs (Homo sapiens, UniProt P14416) (P14416 whole entry): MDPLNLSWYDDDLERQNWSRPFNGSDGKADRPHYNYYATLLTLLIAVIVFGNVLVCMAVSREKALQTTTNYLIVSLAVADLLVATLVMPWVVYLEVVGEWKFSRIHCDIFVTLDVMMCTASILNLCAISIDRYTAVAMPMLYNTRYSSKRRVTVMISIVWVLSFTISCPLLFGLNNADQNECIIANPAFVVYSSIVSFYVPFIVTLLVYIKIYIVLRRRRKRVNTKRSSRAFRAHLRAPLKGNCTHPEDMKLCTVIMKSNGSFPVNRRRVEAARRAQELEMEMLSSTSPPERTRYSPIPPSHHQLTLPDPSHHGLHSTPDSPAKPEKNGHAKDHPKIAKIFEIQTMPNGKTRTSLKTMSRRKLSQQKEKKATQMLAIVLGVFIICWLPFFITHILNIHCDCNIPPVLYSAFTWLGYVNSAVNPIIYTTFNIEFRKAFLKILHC
T9 sequence (P22888 27-699): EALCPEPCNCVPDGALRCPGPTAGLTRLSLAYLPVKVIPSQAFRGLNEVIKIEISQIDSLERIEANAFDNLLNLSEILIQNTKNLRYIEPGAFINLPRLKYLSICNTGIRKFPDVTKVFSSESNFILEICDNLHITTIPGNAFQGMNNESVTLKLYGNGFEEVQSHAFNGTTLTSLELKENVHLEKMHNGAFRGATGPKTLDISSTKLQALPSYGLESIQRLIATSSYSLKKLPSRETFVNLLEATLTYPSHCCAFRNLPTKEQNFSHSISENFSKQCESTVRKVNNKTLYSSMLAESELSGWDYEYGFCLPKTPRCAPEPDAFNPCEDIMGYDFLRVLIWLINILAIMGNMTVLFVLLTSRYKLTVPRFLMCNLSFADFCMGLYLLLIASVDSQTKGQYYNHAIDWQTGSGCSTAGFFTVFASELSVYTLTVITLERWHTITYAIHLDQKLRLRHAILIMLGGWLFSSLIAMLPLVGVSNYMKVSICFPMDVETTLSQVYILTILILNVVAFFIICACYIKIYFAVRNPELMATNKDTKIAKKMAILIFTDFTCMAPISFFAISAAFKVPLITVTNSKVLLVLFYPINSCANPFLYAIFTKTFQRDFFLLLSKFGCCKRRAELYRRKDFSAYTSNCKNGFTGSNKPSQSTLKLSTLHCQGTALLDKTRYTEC
T4 sequence (Q96P69 whole entry): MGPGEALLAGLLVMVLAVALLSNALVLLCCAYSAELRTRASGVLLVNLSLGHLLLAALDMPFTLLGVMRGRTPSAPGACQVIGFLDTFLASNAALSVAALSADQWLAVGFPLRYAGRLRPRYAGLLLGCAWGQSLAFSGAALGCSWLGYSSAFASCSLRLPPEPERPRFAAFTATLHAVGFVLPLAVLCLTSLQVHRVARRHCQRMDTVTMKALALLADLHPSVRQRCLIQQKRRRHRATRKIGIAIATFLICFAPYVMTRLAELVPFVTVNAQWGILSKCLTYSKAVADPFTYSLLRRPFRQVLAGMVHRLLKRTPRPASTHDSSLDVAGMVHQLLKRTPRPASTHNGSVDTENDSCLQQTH
T5 sequence (Q9Y2T5 whole entry): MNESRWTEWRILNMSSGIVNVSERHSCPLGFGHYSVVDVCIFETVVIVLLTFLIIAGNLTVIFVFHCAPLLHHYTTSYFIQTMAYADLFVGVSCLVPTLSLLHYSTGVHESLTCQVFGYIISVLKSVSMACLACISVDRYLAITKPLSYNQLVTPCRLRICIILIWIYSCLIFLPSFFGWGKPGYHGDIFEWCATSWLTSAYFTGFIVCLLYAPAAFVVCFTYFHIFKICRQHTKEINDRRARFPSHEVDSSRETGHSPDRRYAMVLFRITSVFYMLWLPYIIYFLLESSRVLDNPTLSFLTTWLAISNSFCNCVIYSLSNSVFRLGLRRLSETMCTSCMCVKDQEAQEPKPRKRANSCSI

Row | activation at 10 µM [1] | activation at 10 µM [2] | activation at 100 µM [3] | activation at 10 µM [4] | activation at 10 µM [5] | activation at 100 µM [6] | activation at 10 µM ([7]; 10µM) | activation at 10 µM ([8]; 10µM) | activation at 10 µM ([9]; 10µM) | activation at 100 µM [10] | activation at 10 µM ([11]; OPRM1, read-out: % GPCR activation compared to TPA, OPRM1 (opioid receptor, mu 1 (MOR1))) | activation at 100 µM [12] | activation at 100 µM [13] | activation at 10 µM [14] | activation at 100 µM ([7]; 100μM) | activation at 100 µM ([8]; 100μM) | activation at 100 µM ([9]; 100μM) | activation at 10 µM ([11]; OPRM1, OPRM1 (opioid receptor, mu 1 (MOR1)), read-out: % GPCR activation compared to TPA) | SMILES
1 | 1.72% | -0.554% | 1.11% | 0.686% | 1.65% | 0.894% | -1.15% | -17.2% | -2.52% | -1.68% | -2.75% | 4.14% | 0.261% | 0.201% |  |  |  |  | N#C[C@@]1(c2ccc3c(N)ncnn23)O[C@H](CO)[C@@H](O)[C@H]1O [GS441524]
2 | -0.00483% | 0.537% | 3.39% | 2.37% | 0.818% | -0.429% |  |  |  | -0.994% |  | 4.37% | 0.315% | -0.975% | -2.31% | -23% | -1.94% | -1.89% | NC(=O)c1nc(F)cnc1O [favipiravir, 6-fluoro-3-hydroxy-2-pyrazinecarboxamide]
